Results from patent US20260226086A1, “COMPOUNDS AND COMPOSITIONS AS STAT3 DEGRADERS AND USES THEREOF” (REGENTS OF THE UNIVERSITY OF MICHIGAN, priority 2023, published 2026).

Key:
[1] = target: T1, STAT3 (Homo sapiens, UniProt P40763); experiment: HiBiT assay, STAT3 degradation in STAT3-HiBiT KI HeLa cells; format: cell-based; settings: 24 h; for DC50: read-out: STAT3 Degradation (HeLa 24 h HiBit) DC50
T1 construct: This cell line is a clone created by using CRISPR-Cas9 to fuse HiBiT to the 3′ end of STAT3 in HeLa cells; host or cells: STAT3-HiBiT KI HeLa cell line (CRISPR-Cas9 knock-in clone)
T1 sequence (P40763 whole entry): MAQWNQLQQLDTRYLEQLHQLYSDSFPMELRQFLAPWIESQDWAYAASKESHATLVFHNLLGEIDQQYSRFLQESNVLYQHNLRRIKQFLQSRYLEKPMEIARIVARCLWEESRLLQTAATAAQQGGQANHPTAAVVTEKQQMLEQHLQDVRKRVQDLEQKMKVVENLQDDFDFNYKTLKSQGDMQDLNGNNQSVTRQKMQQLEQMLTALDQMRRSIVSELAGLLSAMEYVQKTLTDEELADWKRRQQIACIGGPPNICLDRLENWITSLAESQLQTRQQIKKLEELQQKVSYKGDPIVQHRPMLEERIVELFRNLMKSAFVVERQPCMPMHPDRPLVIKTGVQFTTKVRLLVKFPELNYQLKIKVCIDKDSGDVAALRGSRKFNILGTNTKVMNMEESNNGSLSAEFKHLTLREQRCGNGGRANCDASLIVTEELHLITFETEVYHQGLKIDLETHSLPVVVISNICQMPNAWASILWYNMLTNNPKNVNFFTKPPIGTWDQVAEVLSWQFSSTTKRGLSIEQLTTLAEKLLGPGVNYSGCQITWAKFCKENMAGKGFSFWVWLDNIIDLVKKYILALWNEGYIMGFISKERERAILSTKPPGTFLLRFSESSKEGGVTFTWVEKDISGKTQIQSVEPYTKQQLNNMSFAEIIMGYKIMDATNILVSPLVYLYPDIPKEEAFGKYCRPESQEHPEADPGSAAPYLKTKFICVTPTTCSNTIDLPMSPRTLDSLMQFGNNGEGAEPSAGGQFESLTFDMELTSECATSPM
Description: STAT3 degradation may be determined by HiBiT assay. STAT3-HiBiT KI HeLa cell line, which is a clone created by using CRTISPR-Cas9 to fuse HiBiT to the 3′ end of STAT3 in HeLa cells, may be used for this assay. In a typical procedure, cells seeded at certain amounts of cells (e.g., 20000 cells) per well are incubated with serially diluted compounds for certain period of time (e.g., 24 hours) under certain conditions (e.g., at 37° C. with 5% CO2). At the end of treatment, Nano-Glo HiBiT Lytic Detection reagents is added to the wells and luminescence is acquired on TECAN SPARK plate reader. Untreated cells are used as control. Data points are fit with a four-parameter equation to generate a concentration-response curve. IC50 values are calculated using a nonlinear regression analysis of the mean±SD from triplicate.
STAT3-HiBiT KI HeLa cell line was purchased from Promega. This cell line is a clone created by using CRISPR-Cas9 to fuse HiBiT to the 3′ end of STAT3 in HeLa cells. DMEM medium and FBS were purchased from Gibco/Thermo Fisher Scientific. STAT3 degradation was determined based on quantification of luminescent signal using Nano-Glo HiBiT Lytic Detection System. In a typical procedure, cells seeded at 20000 cells per well in 96-well white plates (Corning) were incubated with serially diluted compounds for 24 hours at 37° C. with 5% CO2. At the end of treatment, Nano-Glo HiBiT Lytic Detection reagents was added to the wells and luminescence was acquired on TECAN SPARK plate reader. Untreated cells were used as control. Data points were fit with a four-parameter equation to generate a concentration-response curve. IC50 values were calculated using a nonlinear regression analysis of the mean±SD from triplicate.

[2] = tested on: SUP-M2 cells; experiment: CellTiter-Glo 2.0 cell viability assay, SUP-M2; format: cell-based; settings: SUP-M2, 96 h, 4 days
Description: For example, cell viability may be determined by CellTiter-Glo 2.0 Cell Viability Assay. In a typical procedure, cells seeded at certain amounts of cells (e.g., 1000 cells) per well are incubated with serially diluted compounds for certain period (e.g., 4 days) under certain conditions (e.g., at 37° C. with 5% CO2). At the end of treatment, CellTiter-Glo 2.0 is added to the wells and luminescence is acquired on TECAN SPARK plate reader. Untreated cells are used as control, Data points are fit with an equation (e.g., a four-parameter equation) to generate a concentration-response curve. IC50 values are calculated using a nonlinear regression analysis of the mean±SD from triplicate.
SU-DHL-1 and SUP-M2 cell viability was determined by CellTiter-Glo 2.0 Cell Viability Assay (Promega). SU-DHL-1 cell line was purchased from ATCC (Manassas, VA) and SUP-M2 (ACC-509) was purchased from DSMZ (Germany). RPMI 1640 medium and fetal bovine serum (FBS) were purchased from Gibco/Thermo Fisher Scientific. In a typical procedure, cells seeded at 1000 cells per well in 384-well white plates (Corning) were incubated with serially diluted compounds for 4 days at 37° C. with 5% C02. At the end of treatment, CellTiter-Glo 2.0 was added to the wells and luminescence was acquired on TECAN SPARK plate reader. Untreated cells were used as control. Data points were fit with a four-parameter equation to generate a concentration-response curve. IC50 values were calculated using a nonlinear regression analysis of the mean±SD from triplicate.

Structure (SMILES) | Dmax at 1 µM [1] [%] | DC50 [1] [nM] | IC50 [2] [nM]
CCS(=O)(=O)c1ccc(CNC(=O)[C@H](CCC(N)=O)NC(=O)[C@@H]2CC[C@@H]3CCN(C(=O)CCCCc4cn([C@@H](C(=O)N5C[C@H](O)C[C@H]5C(=O)N[C@H](C)c5ccc(-c6scnc6C)cc5)C5CCN(C)CC5)nn4)C[C@H](NC(=O)c4cc5cc(C(=O)P(=O)(O)O)ccc5[nH]4)C(=O)N32)cc1 [Compound 21, (2-(((5S,8S,10aR)-8-(((S)-5-amino-1-((4-(ethylsulfonyl)benzyl)amino)-1,5-dioxopentan-2-yl)carbamoyl)-3-(5-(1-((R)-2-((2S,4R)-4-hydroxy-2-(((R)-1-(4-(4-methylthiazol-5-yl)phenyl)ethyl)carbamoyl)pyrrolidin-1-yl)-1-(1-methylpiperidin-4-yl)-2-oxoethyl)-1H-1,2,3-triazol-4-yl)pentanoyl)-6-oxodecahydropyrrolo[1,2-a][1,5]diazocin-5-yl)carbamoyl)-1H-indole-5-carbonyl)phosphonic acid] | > 80 | < 10 | < 10
CCS(=O)(=O)c1ccc(CNC(=O)[C@H](CCC(N)=O)NC(=O)[C@@H]2CC[C@@H]3CCN(C(=O)CCCCc4cn([C@@H](C(=O)N5C[C@H](O)C[C@H]5C(=O)N[C@H](C)c5ccc(-c6scnc6C)cc5)C5CCN(C(C)=O)CC5)nn4)C[C@H](NC(=O)c4cc5cc(C(=O)P(=O)(O)O)ccc5[nH]4)C(=O)N32)cc1 [Compound 22, (2-(((5S,8S,10aR)-3-(5-(1-((R)-1-(1-acetylpiperidin-4-yl)-2-((2S,4R)-4-hydroxy-2-(((R)-1-(4-(4-methylthiazol-5-yl)phenyl)ethyl)carbamoyl)pyrrolidin-1-yl)-2-oxoethyl)-1H-1,2,3-triazol-4-yl)pentanoyl)-8-(((S)-5-amino-1-((4-(ethylsulfonyl)benzyl)amino)-1,5-dioxopentan-2-yl)carbamoyl)-6-oxodecahydropyrrolo[1,2-a][1,5]diazocin-5-yl)carbamoyl)-1H-indole-5-carbonyl)phosphonic acid] | > 80 | < 10 | < 10
CCS(=O)(=O)c1ccc(CNC(=O)[C@H](CCC(N)=O)NC(=O)[C@@H]2CC[C@@H]3CCN(C(=O)CCCCCc4cn([C@H](C(=O)N5C[C@H](O)C[C@H]5C(=O)N[C@@H](COCCOCCOC)c5ccc(-c6scnc6C)cc5)C(C)(C)C)nn4)C[C@H](NC(=O)c4cc5cc(C(=O)P(=O)(O)O)ccc5[nH]4)C(=O)N32)cc1 [Compound 26] | > 80 | < 10 | –
COCCOCCOC[C@H](NC(=O)[C@@H]1C[C@@H](O)CN1C(=O)[C@@H](n1cc(CCCc2cccc(OC[C@H](CCC(N)=O)NC(=O)[C@@H]3CC[C@@H]4CCN(C(C)=O)C[C@H](NC(=O)c5cc6cc(C(=O)P(=O)(O)O)ccc6[nH]5)C(=O)N43)c2Cl)nn1)C(C)(C)C)c1ccc(-c2scnc2C)cc1 [Compound 27, (2-(((5S,8S,10aR)-3-acetyl-8-(((S)-5-amino-1-(2-chloro-3-(3-(1-((S)-1-((2S,4R)-4-hydroxy-2-(((R)-2-(2-(2-methoxyethoxy)ethoxy)-1-(4-(4-methylthiazol-5-yl)phenyl)ethyl)carbamoyl)pyrrolidin-1-yl)-3,3-dimethyl-1-oxobutan-2-yl)-1H-1,2,3-triazol-4-yl)propyl)phenoxy)-5-oxopentan-2-yl)carbamoyl)-6-oxodecahydropyrrolo[1,2-a][1,5]diazocin-5-yl)carbamoyl)-1H-indole-5-carbonyl)phosphonic acid] | > 80 | < 10 | –
CCS(=O)(=O)c1ccc(CNC(=O)[C@H](CCC(N)=O)NC(=O)[C@@H]2CC[C@@H]3CCN(C(=O)CCCCCc4cn([C@@H](C(=O)N5C[C@@H](O)C[C@@H]5C(=O)N[C@@H](C)c5ccc(-c6scnc6C)cc5)C5CCCCC5)nn4)C[C@H](NC(=O)c4cc5cc(C(=O)P(=O)(O)O)ccc5[nH]4)C(=O)N32)cc1 [Compound 28, (2-(((5S,8S,10aR)-8-(((S)-5-amino-1-((4-(ethylsulfonyl)benzyl)amino)-1,5-dioxopentan-2-yl)carbamoyl)-3-(6-(1-((R)-1-cyclohexyl-2-((2R,4S)-4-hydroxy-2-(((S)-1-(4-(4-methylthiazol-5-yl)phenyl)ethyl)carbamoyl)pyrrolidin-1-yl)-2-oxoethyl)-1H-1,2,3-triazol-4-yl)hexanoyl)-6-oxodecahydro-pyrrolo[1,2-a][1,5]diazocin-5-yl)carbamoyl)-1H-indole-5-carbonyl)phosphonic acid] | > 80 | < 10 | –
CCS(=O)(=O)c1ccc(CNC(=O)[C@H](CCC(N)=O)NC(=O)[C@@H]2CC[C@@H]3CCN(C(=O)CCCCCc4cn([C@@H](C(=O)N5C[C@@H](O)C[C@@H]5C(=O)N[C@@H](C)c5ccc(-c6scnc6C)cc5)C5CCOCC5)nn4)C[C@H](NC(=O)c4cc5cc(C(=O)P(=O)(O)O)ccc5[nH]4)C(=O)N32)cc1 [Compound 29, (2-(((5S,8S,10aR)-8-(((S)-5-amino-1-((4-(ethylsulfonyl)benzyl)amino)-1,5-dioxopentan-2-yl)carbamoyl)-3-(6-(1-((R)-2-((2R,4S)-4-hydroxy-2-(((S)-1-(4-(4-methylthiazol-5-yl)phenyl)ethyl)carbamoyl)pyrrolidin-1-yl)-2-oxo-1-(tetrahydro-2H-pyran-4-yl)ethyl)-1H-1,2,3-triazol-4-yl)hexanoyl)-6-oxodecahydropyrrolo[1,2-a][1,5]diazocin-5-yl)carbamoyl)-1H-indole-5-carbonyl)phosphonic acid] | > 80 | < 10 | –
CCS(=O)(=O)c1ccc(OC[C@H](CCC(N)=O)NC(=O)[C@@H]2CC[C@@H]3CCN(C(=O)CCCCc4cn([C@H](C(=O)N5C[C@H](O)C[C@H]5C(=O)N[C@@H](C)c5ccc(-c6scnc6C)cc5)C(C)(C)C)nn4)C[C@H](NC(=O)c4cc5cc(C(=O)P(=O)(O)O)ccc5[nH]4)C(=O)N32)cc1 [Compound 34, (2-(((5S,8S,10aR)-8-(((S)-5-amino-1-(4-(ethylsulfonyl)phenoxy)-5-oxopentan-2-yl)carbamoyl)-3-(5-(1-((S)-1-((2S,4R)-4-hydroxy-2-(((S)-1-(4-(4-methylthiazol-5-yl)phenyl)ethyl)carbamoyl)pyrrolidin-1-yl)-3,3-dimethyl-1-oxobutan-2-yl)-1H-1,2,3-triazol-4-yl)pentanoyl)-6-oxodecahydropyrrolo[1,2-a][1,5]diazocin-5-yl)carbamoyl)-1H-indole-5-carbonyl)phosphonic acid] | 60 to 80 | 10 to 100 | –
COCCOCCOCCOC[C@H](NC(=O)[C@@H]1C[C@@H](O)CN1C(=O)[C@@H](n1cc(CCCc2cccc(OC[C@H](CCC(N)=O)NC(=O)[C@@H]3CC[C@@H]4CCN(C(C)=O)C[C@H](NC(=O)c5cc6cc(C(=O)P(=O)(O)O)ccc6[nH]5)C(=O)N43)c2Cl)nn1)C(C)(C)C)c1ccc(-c2scnc2C)cc1 [Compound 35, (2-(((5S,8S,10aR)-3-acetyl-8-(((S)-5-amino-1-(2-chloro-3-(3-(1-((S)-1-((2S,4R)-4-hydroxy-2-(((R)-13-(4-(4-methylthiazol-5-yl)phenyl)-2,5,8,11-tetraoxatridecan-13-yl)carbamoyl)pyrrolidin-1-yl)-3,3-dimethyl-1-oxobutan-2-yl)-1H-1,2,3-triazol-4-yl)propyl)phenoxy)-5-oxopentan-2-yl)carbamoyl)-6-oxodecahydropyrrolo[1,2-a][1,5]diazocin-5-yl)carbamoyl)-1H-indole-5-carbonyl)phosphonic acid] | > 80 | 10 to 100 | 10 to 100
CC(=O)N1CC[C@H]2CC[C@@H](C(=O)N[C@@H](CCC(N)=O)COc3cccc(CCCc4cn([C@H](C(=O)N5C[C@H](O)C[C@H]5C(=O)N[C@@H](C)c5ccc(-c6scnc6C)cc5)C(C)(C)C)nn4)c3Cl)N2C(=O)[C@@H](NC(=O)c2cc3cc(C(F)(F)P(=O)(O)O)ccc3s2)C1 [Compound 44] | > 80 | < 10 | –
